Test results from US20060122260A1, “Intermediates for aromatic polyketides as selective anticancer and antiviral agents” (priority 2002, published 2006).
In brackets after ≈: the same amount, converted by molar mass. Entries after “also recorded” stand apart in the source; their conditions may differ.

Legend:
RS virus = assay: Activity testing in human virus models: RS virus; format: cell-based; conditions: for activity against virus: RS virus, concentrations tested 1 μM and 100 μM; for inhibition at 1 µM / inhibition at 100 µM: human respiratory syncytial virus, RSV
Protocol: (§1) The results obtained from the parvovirus model encouraged us to carry out the bioactivity tests using human viruses as targets. Selected RNA- and DNA-viruses were tested; herpes simplex (HSV), adenovirus, influenza B, RS virus, cytomegalovirus (CMV), and CBV5 virus. […] The concentrations tested were 1 μM and 100 μM. The cytotoxic effect was not found using 1 μM of S2502 or S2507. Instead, 100 μM of S2502 was toxic to the cells used for CBV5 and HSV infection, and 100 μM of S2507 was toxic to the cells used for HSV infection.
(§2) S2507 and S2502 were further tested in human virus models: herpes simplex (HSV), adenovirus, influenza B, RS virus, cytomegalovirus and CBV5 virus. […] The compounds were active when administered simultaneously or before an infection (prophylactic) and half an hour after the infection. […] However, in HSV 100 μM concentration was toxic.

cytomegalovirus (CMV) = assay: Activity testing in human virus models: cytomegalovirus; format: cell-based; conditions: for activity against virus: CMV, concentrations tested 1 μM and 100 μM; for inhibition at 1 µM / inhibition at 100 µM: Human betaherpesvirus 5, Cytomegalo
Protocol: as §1, §2

[1] = tested on: cells used for HSV infection; assay: Toxicity to cells used for HSV infection; format: cell-based; conditions: 100 μM
Protocol: as §1, §2

Stability = format: physicochemical; conditions: for stability in purification process and bioassays: typical conditions used in the purification process and in bioassays
Source text: It is the methyl ester of the S2507 acid.

MES-SA = assay: Typical cytotoxicity screen, MES-SA
CBV5 virus = assay: Activity testing in human virus models: CBV5; format: cell-based; conditions: for inhibition at 1 µM: CBV5, 1 μM; for activity against virus: CBV5 virus, concentrations tested 1 μM and 100 μM
Protocol: as §1, §2

MES-SA/Dx5 = assay: Typical cytotoxicity screen, MES-SA/Dx5
adenovirus = assay: Activity testing in human virus models: adenovirus; format: cell-based; conditions: for activity against virus: adenovirus, concentrations tested 1 μM and 100 μM; for inhibition at 1 µM / inhibition at 100 µM: unidentified adenovirus, Adeno
Protocol: as §1, §2

herpes simplex (HSV) = assay: Activity testing in human virus models: HSV; format: cell-based, herpes simplex virus; conditions: for activity against virus: HSV, concentrations tested 1 μM and 100 μM; for inhibition % 100 μM / inhibition at 1 µM: Herpes (HSV); for inhibition at 1 µM: Homo sapiens
Protocol: as §1, §2

uninfected cells = assay: Cytotoxicity in the parvovirus model; conditions: for effect on uninfected cells: parvovirus model
[2] = tested on: Canine parvovirus type 2 (CPV-d); assay: Parvovirus infectivity screening (animal virus model); format: cell-based; conditions: for antiviral activity against parvovirus (inhibition of infection of cells): drug added simultaneously with CPV, 24 h p.i.
[3] = tested on: melanoma cell lines (MAL-ME-3M, M14, SK-MEL-5); assay: NCI 60-cell line panel, melanoma cell lines; format: cell-based, human; conditions: some melanoma cell lines
Source text: National Cancer Institute (NCI) tested both of the compounds in their 60-cell line panel (copy of their report available). NCI uses a 48-hour continuous drug exposure protocol. Cell viability and growth are estimated using a sulforhodamine B (SRB) protein assay. The screen is described on the web site: http://dtp.nci.nih.gov. […] However, a mean value of ED50 is at micro molar range against some melanoma cell lines (MAL-ME-3M, M14, SK-MEL-5).

influenza B = assay: Activity testing in human virus models: influenza B; format: cell-based; conditions: for inhibition at 1 µM / inhibition at 100 µM: Influenza B virus, Influenza B; for activity against virus: influenza B, concentrations tested 1 μM and 100 μM
pKa = format: physicochemical; conditions: comparable to acetic acid
mice = assay: In vivo toxicity, preliminary dose range finding study; conditions: single i.p. 100, 50, 25, 12.5 and 6.25 mg/kg, two weeks
Protocol: The drug was injected once i.p. at doses 100, 50, 25, 12.5 and 6.25 mg/kg to two mice at each dose level. The mice were observed daily and weighed every 3 to 5 days for two weeks.

[4] = tested on: control cultivations without virus; assay: Cytotoxic effect on cells in the human virus tests (control cultivations without virus); conditions: for cytotoxic effect: 1 μM; for tolerance of control cultivations without virus: utilized drug concentrations (100 and 1 μM)
[5] = tested on: cells used for CBV5 infection; assay: Toxicity to cells used for CBV5 infection; format: cell-based; conditions: 100 μM
Protocol: as §1

human topoisomerase I = biological target: T1, human topoisomerase I (Homo sapiens, UniProt P11387); assay: Topoisomerase I drug screening kit; format: biochemical
T1 construct: purchased TopoGEN, Inc, Columbus, Ohio
T1 sequence (P11387 1-765): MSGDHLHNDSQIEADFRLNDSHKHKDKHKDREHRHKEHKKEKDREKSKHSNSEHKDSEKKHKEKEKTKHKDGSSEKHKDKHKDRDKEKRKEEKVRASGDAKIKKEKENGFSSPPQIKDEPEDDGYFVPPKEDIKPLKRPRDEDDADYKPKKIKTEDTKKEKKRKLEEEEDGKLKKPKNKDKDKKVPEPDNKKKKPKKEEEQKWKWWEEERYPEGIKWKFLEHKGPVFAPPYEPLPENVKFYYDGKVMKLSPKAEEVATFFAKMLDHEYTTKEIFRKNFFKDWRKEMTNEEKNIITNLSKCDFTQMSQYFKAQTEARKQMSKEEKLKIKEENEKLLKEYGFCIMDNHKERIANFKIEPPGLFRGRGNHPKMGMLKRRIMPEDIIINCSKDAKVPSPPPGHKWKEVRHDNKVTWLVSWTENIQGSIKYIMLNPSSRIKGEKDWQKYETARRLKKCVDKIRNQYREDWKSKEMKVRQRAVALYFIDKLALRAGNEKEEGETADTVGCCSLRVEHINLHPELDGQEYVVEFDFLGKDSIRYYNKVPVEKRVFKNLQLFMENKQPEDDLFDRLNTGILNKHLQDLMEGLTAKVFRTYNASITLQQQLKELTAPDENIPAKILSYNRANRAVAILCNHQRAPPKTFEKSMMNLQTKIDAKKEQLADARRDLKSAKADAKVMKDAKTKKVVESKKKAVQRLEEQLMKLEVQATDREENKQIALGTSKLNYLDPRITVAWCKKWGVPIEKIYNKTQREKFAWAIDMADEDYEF
Protocol: (§3) In order to understand the mechanism of anticancer activity, the inhibition of topoisomerases by S2502 was studied. The topoisomerase assays were done using Topoisomerase I and II drug screening kits with human topoisomerase I and II (p170 form) enzymes, respectively, according to the manufacturer's (TopoGEN, Inc, Columbus, Ohio) instructions. […] Minimal inhibitory concentrations were 25 μM against Topoisomerase 1 and 50 μM against Topoisomerase II.

[6] = biological target: T2, human topoisomerase II (p170 form) (Homo sapiens, UniProt P11388); assay: Topoisomerase II drug screening kit; format: biochemical
T2 construct: purchased TopoGEN, Inc, Columbus, Ohio
T2 sequence (P11388 whole entry): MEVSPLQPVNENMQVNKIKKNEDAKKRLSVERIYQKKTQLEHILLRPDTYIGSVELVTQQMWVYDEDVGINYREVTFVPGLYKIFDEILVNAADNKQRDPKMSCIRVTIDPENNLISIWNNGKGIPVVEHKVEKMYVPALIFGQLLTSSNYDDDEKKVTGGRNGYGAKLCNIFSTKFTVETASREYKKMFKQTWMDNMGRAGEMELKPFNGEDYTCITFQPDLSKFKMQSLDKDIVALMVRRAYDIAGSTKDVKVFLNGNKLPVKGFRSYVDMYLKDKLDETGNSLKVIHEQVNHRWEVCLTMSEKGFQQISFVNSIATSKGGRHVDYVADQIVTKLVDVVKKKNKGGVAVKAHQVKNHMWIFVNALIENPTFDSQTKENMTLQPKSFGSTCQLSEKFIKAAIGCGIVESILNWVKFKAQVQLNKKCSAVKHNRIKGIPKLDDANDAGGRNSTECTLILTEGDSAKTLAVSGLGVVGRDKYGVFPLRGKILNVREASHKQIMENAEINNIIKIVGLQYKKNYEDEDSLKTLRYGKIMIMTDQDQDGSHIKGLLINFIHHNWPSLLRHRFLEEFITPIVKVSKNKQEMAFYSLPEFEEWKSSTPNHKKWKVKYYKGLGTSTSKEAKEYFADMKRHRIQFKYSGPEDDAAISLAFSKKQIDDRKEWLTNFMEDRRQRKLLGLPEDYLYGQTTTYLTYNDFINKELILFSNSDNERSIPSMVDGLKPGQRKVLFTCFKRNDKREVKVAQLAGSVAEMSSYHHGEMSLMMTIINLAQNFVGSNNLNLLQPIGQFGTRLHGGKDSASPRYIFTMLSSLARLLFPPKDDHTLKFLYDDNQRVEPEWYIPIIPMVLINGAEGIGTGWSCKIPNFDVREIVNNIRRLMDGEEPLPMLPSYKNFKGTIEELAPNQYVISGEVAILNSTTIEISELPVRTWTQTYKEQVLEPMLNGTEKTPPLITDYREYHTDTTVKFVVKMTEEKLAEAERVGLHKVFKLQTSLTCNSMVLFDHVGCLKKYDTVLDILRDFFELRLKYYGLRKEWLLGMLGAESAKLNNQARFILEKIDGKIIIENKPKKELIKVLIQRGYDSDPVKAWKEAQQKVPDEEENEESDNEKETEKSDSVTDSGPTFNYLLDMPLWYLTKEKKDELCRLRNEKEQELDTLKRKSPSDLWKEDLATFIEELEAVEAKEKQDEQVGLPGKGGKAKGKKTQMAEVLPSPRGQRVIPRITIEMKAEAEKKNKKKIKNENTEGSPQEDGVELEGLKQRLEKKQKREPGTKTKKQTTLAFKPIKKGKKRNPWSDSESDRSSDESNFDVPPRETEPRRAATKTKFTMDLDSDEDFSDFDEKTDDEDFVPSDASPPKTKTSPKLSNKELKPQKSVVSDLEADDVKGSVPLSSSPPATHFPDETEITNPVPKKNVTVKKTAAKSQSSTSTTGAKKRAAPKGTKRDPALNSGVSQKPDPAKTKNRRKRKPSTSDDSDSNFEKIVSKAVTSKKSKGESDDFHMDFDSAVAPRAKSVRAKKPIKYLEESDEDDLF
Protocol: as §3

Compound	activity against virus (RS virus)	inhibition at 1 µM (RS virus)	inhibition at 100 µM (RS virus)	activity against virus (cytomegalovirus (CMV))	inhibition at 1 µM (cytomegalovirus (CMV))	inhibition at 100 µM (cytomegalovirus (CMV))	toxicity to cells [1]	stability under normal laboratory conditions (Stability)	stability in purification process and bioassays (Stability)	anticancer activity (cytotoxicity screen) (MES-SA)	inhibition at 1 µM (CBV5 virus)	activity against virus (CBV5 virus)	anticancer activity (cytotoxicity screen) (MES-SA/Dx5)	activity against virus (adenovirus)	inhibition at 1 µM (adenovirus)	inhibition at 100 µM (adenovirus)	solubility to water at pH 7	activity against virus (herpes simplex (HSV))	inhibition % 100 μM (herpes simplex (HSV))	inhibition at 1 µM (herpes simplex (HSV))	other results
CC(=O)/C=C1/C=C2OC(CC(=O)O)Cc3cc4cccc(O)c4c(c32)O1 (stereo not drawn) [S2507]	active	100%	100%	only S2502 was active against CMV	0%	0%	toxic	stable and non-reactive	stable	fail to show anticancer activity	100%	active	fail to show anticancer activity	active	90%	100%	slightly soluble	active	toxic	100%	inhibition at 100 µM (CBV5 virus; CBV5, 100 μM): 100%; cytotoxic properties (uninfected cells; highest concentration studied, 500 nM): did not exhibit cytotoxic properties; effect on uninfected cells (uninfected cells): without disturbing the uninfected cells; effect on parvovirus over concentration range ([2]; 5 nM to 500 nM): dose-activity correlation; antiviral activity against parvovirus (inhibition of infection of cells) [2]: remarkable antiviral activity; also recorded: partially inhibit the infection; activity against melanoma cell lines [3]: active against some melanoma cell lines; inhibition at 1 µM (influenza B): 100%; inhibition at 100 µM (influenza B): 100%; activity against virus (influenza B): active; pKa (pKa): ~4.6; effect on the weight of the mice (mice): no effect; outer signs of general illness (mice): no outer signs of general illness were noticed; cytotoxic effect [4]: not found; tolerance of control cultivations without virus [4]: tolerated well
COC(=O)CC1Cc2cc3cccc(O)c3c3c2C(=C/C(=C/C(C)=O)O3)O1 (stereo not drawn) [S2502]	active	100%	100%	active	100%	100%	toxic	stable and non-reactive	stable	fail to show anticancer activity	100%	active	fail to show anticancer activity	active	90%	100%	not soluble	active	toxic	100%	toxicity to cells [5]: toxic; inhibition % 100 μM (CBV5 virus; CBV5, 100 μM): toxic; Minimal inhibitory concentration (human topoisomerase I): 25 µM (≈ 9.16 µg/mL); effect on uninfected cells (uninfected cells): without disturbing the uninfected cells; antiviral activity against parvovirus (inhibition of infection of cells) [2]: remarkable antiviral activity; also recorded: partially inhibit the infection; activity against melanoma cell lines [3]: active against some melanoma cell lines; Minimal inhibitory concentration [6]: 50 µM (≈ 18.3 µg/mL); inhibition at 1 µM (influenza B): 100%; inhibition at 100 µM (influenza B): 100%; activity against virus (influenza B): active; cytotoxic effect [4]: not found; tolerance of control cultivations without virus [4]: tolerated well
